From US20250235543A1, “MODIFIED PROTEINS AND PROTEIN DEGRADERS” (Cullgen (Shanghai), Inc., priority 2021, published 2025) come the findings set out here.

The subject of one test is cyclin D1. The experiment in a line: Cyclin D1 percentage degradation in Calu-1 cells (immunoblotting). Type of test: cell-based. Conditions: 200 nM, 16 hours. In outline:
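Cells were rinsed once in cold PBS and lysed in cold RIPA buffer containing protease and phosphatase inhibitors, with gentle agitation at 4° C. for 30 min. Lysates were spun at 13,000 rpm for 10 min at 4° C., protein was measured by BCA, and samples were boiled in Laemmli buffer at 99° C. for 5 min before SDS-PAGE immunoblotting.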

The next test concerns the target T1, CDK4 (Homo sapiens, UniProt P11802).
T1 construct: endogenous in cells; host or cells: Calu-1
The experiment in a line: CDK4 percentage degradation in Calu-1 cells (immunoblotting). In kind it is cell-based. Conditions: read-out: CDK4 Degradation (200 nM). In outline:
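Cultured cells were rinsed once in cold PBS and lysed in cold RIPA buffer containing protease and phosphatase inhibitors, with gentle agitation at 4° C. for 30 min. Lysates were centrifuged at 13,000 rpm for 10 min at 4° C., and protein was quantified by BCA. Samples were then separated by SDS-PAGE, detected with ECL, and the CDK4 bands quantified in Image Lab.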
(In general: In western blotting, separated proteins are transferred to a membrane and probed.)

Where two headings read alike, the source gives them in different places. Some results are limits rather than exact numbers.

T1 sequence (P11802 2-303 limits assumed): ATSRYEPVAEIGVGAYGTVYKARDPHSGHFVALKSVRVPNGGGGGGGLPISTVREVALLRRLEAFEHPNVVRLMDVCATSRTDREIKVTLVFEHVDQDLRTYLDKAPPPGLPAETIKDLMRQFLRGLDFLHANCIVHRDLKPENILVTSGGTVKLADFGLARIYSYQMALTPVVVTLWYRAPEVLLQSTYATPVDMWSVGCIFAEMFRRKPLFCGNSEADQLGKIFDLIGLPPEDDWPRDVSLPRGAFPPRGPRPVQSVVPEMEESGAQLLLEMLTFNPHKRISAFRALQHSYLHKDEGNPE
T1 sequence (P24385 whole entry partner): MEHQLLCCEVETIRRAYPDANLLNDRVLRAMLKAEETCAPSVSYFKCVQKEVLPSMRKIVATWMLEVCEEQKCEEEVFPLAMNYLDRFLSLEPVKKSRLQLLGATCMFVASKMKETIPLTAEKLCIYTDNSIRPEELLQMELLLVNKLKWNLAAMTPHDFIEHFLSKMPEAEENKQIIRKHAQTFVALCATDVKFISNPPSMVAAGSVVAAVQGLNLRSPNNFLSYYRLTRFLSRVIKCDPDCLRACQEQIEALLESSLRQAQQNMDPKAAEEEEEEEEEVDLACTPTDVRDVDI
T1 sequence (Q16531 2-1140 limits assumed, further chain): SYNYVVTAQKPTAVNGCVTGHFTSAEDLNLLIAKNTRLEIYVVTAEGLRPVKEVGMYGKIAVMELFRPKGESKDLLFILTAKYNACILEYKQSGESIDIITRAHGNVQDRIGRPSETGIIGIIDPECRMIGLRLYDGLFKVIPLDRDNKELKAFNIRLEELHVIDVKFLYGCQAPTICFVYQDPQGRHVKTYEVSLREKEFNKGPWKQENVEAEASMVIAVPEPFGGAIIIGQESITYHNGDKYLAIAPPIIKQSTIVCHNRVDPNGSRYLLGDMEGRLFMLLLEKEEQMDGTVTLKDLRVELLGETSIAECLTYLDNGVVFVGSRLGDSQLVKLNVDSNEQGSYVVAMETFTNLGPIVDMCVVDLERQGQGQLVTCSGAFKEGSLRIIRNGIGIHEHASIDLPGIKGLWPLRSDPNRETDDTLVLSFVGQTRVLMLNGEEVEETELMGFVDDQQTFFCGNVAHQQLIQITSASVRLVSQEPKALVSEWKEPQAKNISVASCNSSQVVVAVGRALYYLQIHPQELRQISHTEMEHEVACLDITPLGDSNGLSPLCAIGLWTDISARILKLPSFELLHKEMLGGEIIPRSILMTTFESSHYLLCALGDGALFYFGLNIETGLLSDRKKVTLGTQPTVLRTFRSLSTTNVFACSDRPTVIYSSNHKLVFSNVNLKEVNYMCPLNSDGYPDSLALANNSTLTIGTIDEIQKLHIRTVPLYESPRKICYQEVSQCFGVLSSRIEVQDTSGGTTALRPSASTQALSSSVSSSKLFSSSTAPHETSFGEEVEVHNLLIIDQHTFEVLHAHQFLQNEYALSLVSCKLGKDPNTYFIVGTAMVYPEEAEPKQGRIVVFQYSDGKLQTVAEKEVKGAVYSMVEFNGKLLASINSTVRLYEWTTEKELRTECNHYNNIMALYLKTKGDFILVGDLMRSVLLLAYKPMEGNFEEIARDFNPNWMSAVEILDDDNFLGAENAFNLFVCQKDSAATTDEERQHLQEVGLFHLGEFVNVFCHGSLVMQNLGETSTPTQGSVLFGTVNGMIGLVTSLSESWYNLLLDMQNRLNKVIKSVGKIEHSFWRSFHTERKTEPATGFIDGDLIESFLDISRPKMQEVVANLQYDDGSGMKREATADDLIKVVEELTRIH

Turning to `CC(=O)c1c(C)c2cnc(Nc3ccc(N4CCN(C(=O)CCOCCOCCC(=O)Nc5ccccc5C(=O)Nc5nc(C)c(C)s5)CC4)cn3)nc2n(C2CCCC2)c1=O` [CPD-128, 2-(3-(2-(3-(4-(6-((6-Acetyl-8-cyclopentyl-5-methyl-7-oxo-7,8-dihydropyrido[2,3-d]pyrimidin-2-yl)amino)pyridin-3-yl)piperazin-1-yl)-3-oxopropoxy)ethoxy)propanamido)-N-(4,5-dimethylthiazol-2-yl)benzamide], in the test on cyclin D1, the “CyclinD1 Degradation (200 nM)” value is “C (protein percentage degradation <50%, and >=30%)”. Moreover, the inhibition at 0.2 µM on CDK4 (Calu-1, 16 h) lay within 50 to 80%.
Turning to `CC(=O)c1c(C)c2cnc(Nc3ccc(N4CCN(C(=O)CCCCCNc5ccc(C)c(C(=O)Nc6nc(C)c(C)s6)c5)CC4)cn3)nc2n(C2CCCC2)c1=O` [CPD-129, 5-((6-(4-(6-((6-Acetyl-8-cyclopentyl-5-methyl-7-oxo-7,8-dihydropyrido[2,3-d]pyrimidin-2-yl)amino)pyridin-3-yl)piperazin-1-yl)-6-oxohexyl)amino)-N-(4,5-dimethylthiazol-2-yl)-2-methylbenzamide], the “CyclinD1 Degradation (200 nM)” value in the test with cyclin D1 is “D (protein percentage degradation <30%)”. The inhibition at 0.2 µM on CDK4 (Calu-1, 16 h) was under 30%.
For `CC(=O)c1c(C)c2cnc(Nc3ccc(N4CCN(C(=O)CCOCCOCCNc5ccc(C)c(C(=O)Nc6nc(C)c(C)s6)c5)CC4)cn3)nc2n(C2CCCC2)c1=O` [CPD-130, 5-((2-(2-(3-(4-(6-((6-Acetyl-8-cyclopentyl-5-methyl-7-oxo-7,8-dihydropyrido[2,3-d]pyrimidin-2-yl)amino)pyridin-3-yl)piperazin-1-yl)-3-oxopropoxy)ethoxy)ethyl)amino)-N-(4,5-dimethylthiazol-2-yl)-2-methylbenzamide], the “CyclinD1 Degradation (200 nM)” value in the test on cyclin D1 was “D (protein percentage degradation <30%)”. Also, on CDK4 (Calu-1, 16 h), the inhibition at 0.2 µM was under 30%.
As for `CC(=O)c1c(C)c2cnc(Nc3ccc(N4CCN(C(=O)CCOCCOCCOCCOCCOCCOCCNc5ccc(C)c(C(=O)Nc6nc(C)c(C)s6)c5)CC4)cn3)nc2n(C2CCCC2)c1=O` [CPD-131, 5-((21-(4-(6-((6-Acetyl-8-cyclopentyl-5-methyl-7-oxo-7,8-dihydropyrido[2,3-d]pyrimidin-2-yl)amino)pyridin-3-yl)piperazin-1-yl)-21-oxo-3,6,9,12,15,18-hexaoxahenicosyl)amino)-N-(4,5-dimethylthiazol-2-yl)-2-methylbenzamide], the “CyclinD1 Degradation (200 nM)” value with cyclin D1 is recorded as “D (protein percentage degradation <30%)”. Also, the inhibition at 0.2 µM at CDK4 (Calu-1, 16 h) is under 30%.
With `CC(=O)c1c(C)c2cnc(Nc3ccc(N4CCN(CC(=O)NCCOCCOCCOCCOCCOCCOCCNc5ccc(C)c(C(=O)Nc6nc(C)c(C)s6)c5)CC4)cn3)nc2n(C2CCCC2)c1=O` [CPD-132, 5-((1-(4-(6-((6-Acetyl-8-cyclopentyl-5-methyl-7-oxo-7,8-dihydropyrido[2,3-d]pyrimidin-2-yl)amino)pyridin-3-yl)piperazin-1-yl)-2-oxo-6,9,12,15,18,21-hexaoxa-3-azatricosan-23-yl)amino)-N-(4,5-dimethylthiazol-2-yl)-2-methylbenzamide], the “CyclinD1 Degradation (200 nM)” value in the test with cyclin D1 is “A (protein percentage degradation >=80%)”. Moreover, on CDK4 (Calu-1 cells, 200 nM, 16 hours), the inhibition at 0.2 µM was over 80%.
Turning to `CC(=O)c1c(C)c2cnc(Nc3ccc(N4CCN(C(=O)CCOCCOCCOCCOCCOCCOCCNc5cccc(C(=O)Nc6nc(C)c(C)s6)c5C)CC4)cn3)nc2n(C2CCCC2)c1=O` [CPD-133, 3-((21-(4-(6-((6-Acetyl-8-cyclopentyl-5-methyl-7-oxo-7,8-dihydropyrido[2,3-d]pyrimidin-2-yl)amino)pyridin-3-yl)piperazin-1-yl)-21-oxo-3,6,9,12,15,18-hexaoxahenicosyl)amino)-N-(4,5-dimethylthiazol-2-yl)-2-methylbenzamide], the “CyclinD1 Degradation (200 nM)” value in the test on cyclin D1 is “A (protein percentage degradation >=80%)”. Further, the inhibition at 0.2 µM on CDK4 (Calu-1, 16 h) is 50 to 80%.
`CC(=O)c1c(C)c2cnc(Nc3ccc(N4CCN(C(=O)CCOCCOCCOCCOCCOCCNc5ccc(C)c(C(=O)Nc6nc(C)c(C)s6)c5)CC4)cn3)nc2n(C2CCCC2)c1=O` [CPD-134, 5-((18-(4-(6-((6-Acetyl-8-cyclopentyl-5-methyl-7-oxo-7,8-dihydropyrido[2,3-d]pyrimidin-2-yl)amino)pyridin-3-yl)piperazin-1-yl)-18-oxo-3,6,9,12,15-pentaoxaoctadecyl)amino)-N-(4,5-dimethylthiazol-2-yl)-2-methylbenzamide]: in the test on cyclin D1, the “CyclinD1 Degradation (200 nM)” value is “D (protein percentage degradation <30%)”. Further, the inhibition at 0.2 µM at CDK4 (Calu-1, 16 h) is under 30%.
As for `CC(=O)c1c(C)c2cnc(Nc3ccc(N4CCN(C(=O)CNc5ccc(C)c(C(=O)Nc6nc(C)c(C)s6)c5)CC4)cn3)nc2n(C2CCCC2)c1=O` [CPD-135, 5-((2-(4-(6-((6-Acetyl-8-cyclopentyl-5-methyl-7-oxo-7,8-dihydropyrido[2,3-d]pyrimidin-2-yl)amino)pyridin-3-yl)piperazin-1-yl)-2-oxoethyl)amino)-N-(4,5-dimethylthiazol-2-yl)-2-methylbenzamide], the “CyclinD1 Degradation (200 nM)” value with cyclin D1 was “D (protein percentage degradation <30%)”. Moreover, the inhibition at 0.2 µM on CDK4 (Calu-1, 16 h) is under 30%.
Take `CC(=O)c1c(C)c2cnc(Nc3ccc(N4CCN(CC(=O)NCCCCCCCC(=O)Nc5ccccc5C(=O)Nc5nc(C)c(C)s5)CC4)cn3)nc2n(C2CCCC2)c1=O` [CPD-136, 2-(8-(2-(4-(6-((6-Acetyl-8-cyclopentyl-5-methyl-7-oxo-7,8-dihydropyrido[2,3-d]pyrimidin-2-yl)amino)pyridin-3-yl)piperazin-1-yl)acetamido)octanamido)-N-(4,5-dimethylthiazol-2-yl)benzamide]: in the test on cyclin D1, the “CyclinD1 Degradation (200 nM)” value is given as “A (protein percentage degradation >=80%)”. For the same molecule, the inhibition at 0.2 µM at CDK4 (Calu-1 cells, 200 nM, 16 hours) was in the range of 50 to 80%.
Consider `CC(=O)c1c(C)c2cnc(Nc3ccc(N4CCN(C(=O)CCCCCNc5cccc(C(=O)Nc6nc(C)c(C)s6)c5C)CC4)cn3)nc2n(C2CCCC2)c1=O` [CPD-137, 3-((6-(4-(6-((6-Acetyl-8-cyclopentyl-5-methyl-7-oxo-7,8-dihydropyrido[2,3-d]pyrimidin-2-yl)amino)pyridin-3-yl)piperazin-1-yl)-6-oxohexyl)amino)-N-(4,5-dimethylthiazol-2-yl)-2-methylbenzamide], for which the “CyclinD1 Degradation (200 nM)” value with cyclin D1 is on record as “D (protein percentage degradation <30%)”. For the same molecule, the inhibition at 0.2 µM on CDK4 (Calu-1, 16 h) is under 30%.
On to `CC(=O)c1c(C)c2cnc(Nc3ccc(N4CCN(C(=O)CCCCCCNc5cccc(C(=O)Nc6nc(C)c(C)s6)c5C)CC4)cn3)nc2n(C2CCCC2)c1=O` [CPD-138, 3-((7-(4-(6-((6-Acetyl-8-cyclopentyl-5-methyl-7-oxo-7,8-dihydropyrido[2,3-d]pyrimidin-2-yl)amino)pyridin-3-yl)piperazin-1-yl)-7-oxoheptyl)amino)-N-(4,5-dimethylthiazol-2-yl)-2-methylbenzamide], for which, in the test with cyclin D1, the “CyclinD1 Degradation (200 nM)” value is reported as “D (protein percentage degradation <30%)”. The inhibition at 0.2 µM at CDK4 (Calu-1 cells, 200 nM, 16 hours) was under 30%.
For `CC(=O)c1c(C)c2cnc(Nc3ccc(N4CCN(CC(=O)NCCOCCOCCC(=O)Nc5cccc(C)c5C(=O)Nc5nc(C)c(C)s5)CC4)cn3)nc2n(C2CCCC2)c1=O` [CPD-139, 2-(3-(2-(2-(2-(4-(6-((6-Acetyl-8-cyclopentyl-5-methyl-7-oxo-7,8-dihydropyrido[2,3-d]pyrimidin-2-yl)amino)pyridin-3-yl)piperazin-1-yl)acetamido)ethoxy)ethoxy)propanamido)-N-(4,5-dimethylthiazol-2-yl)-6-methylbenzamide], in that order: “D (protein percentage degradation <30%)” and under 30%.
On to `CC(=O)c1c(C)c2cnc(Nc3ccc(N4CCN(CC(=O)NCCOCCOCCC(=O)Nc5cc(Cl)ccc5C(=O)Nc5nc(C)c(C)s5)CC4)cn3)nc2n(C2CCCC2)c1=O` [CPD-140, 2-(3-(2-(2-(2-(4-(6-((6-Acetyl-8-cyclopentyl-5-methyl-7-oxo-7,8-dihydropyrido[2,3-d]pyrimidin-2-yl)amino)pyridin-3-yl)piperazin-1-yl)acetamido)ethoxy)ethoxy)propanamido)-4-chloro-N-(4,5-dimethylthiazol-2-yl)benzamide], for which, in the test on cyclin D1, the “CyclinD1 Degradation (200 nM)” value is “A (protein percentage degradation >=80%)”. In addition, the inhibition at 0.2 µM at CDK4 (Calu-1 cells, 200 nM, 16 hours) was in the range of 50 to 80%.
In the case of `CC(=O)c1c(C)c2cnc(Nc3ccc(N4CCN(CC(=O)NCCOCCOCCC(=O)Nc5ccc(C)cc5C(=O)Nc5nc(C)c(C)s5)CC4)cn3)nc2n(C2CCCC2)c1=O` [CPD-141, 2-(3-(2-(2-(2-(4-(6-((6-Acetyl-8-cyclopentyl-5-methyl-7-oxo-7,8-dihydropyrido[2,3-d]pyrimidin-2-yl)amino)pyridin-3-yl)piperazin-1-yl)acetamido)ethoxy)ethoxy)propanamido)-N-(4,5-dimethylthiazol-2-yl)-5-methylbenzamide], the “CyclinD1 Degradation (200 nM)” value in the test on cyclin D1 was “A (protein percentage degradation >=80%)”. Also, the inhibition at 0.2 µM on CDK4 (Calu-1 cells, 200 nM, 16 hours) was 50 to 80%.
With `CC(=O)c1c(C)c2cnc(Nc3ccc(N4CCN(CC(=O)NCCOCCOCCC(=O)Nc5ccc(Cl)cc5C(=O)Nc5nc(C)c(C)s5)CC4)cn3)nc2n(C2CCCC2)c1=O` [CPD-142, 2-(3-(2-(2-(2-(4-(6-((6-Acetyl-8-cyclopentyl-5-methyl-7-oxo-7,8-dihydropyrido[2,3-d]pyrimidin-2-yl)amino)pyridin-3-yl)piperazin-1-yl)acetamido)ethoxy)ethoxy)propanamido)-5-chloro-N-(4,5-dimethylthiazol-2-yl)benzamide], the “CyclinD1 Degradation (200 nM)” value in the test on cyclin D1 was “D (protein percentage degradation <30%)”. Moreover, at CDK4 (Calu-1 cells, 200 nM, 16 hours), the inhibition at 0.2 µM was under 30%.
